According to US20210045385A1, “PYRIDAZINONE-SUBSTITUTED KETOXIMES AS HERBICIDES” (FMC Corporation, priority 2018, published 2021):

Legend:
Assay type in all cases: in vivo
rice (Oryza sativa) = assay: Test B flooded paddy test, visual plant response rating; settings: 250 g ai/ha, Flood, applied to paddy water, 2-leaf stage, evaluated after 13 to 15 days
How it was run: (§1)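 Flooded-pot treatment: water 3 cm over the soil, chemical delivered into that water, depth unchanged for the duration. Assessed by eye versus controls following 13–15 greenhouse days; plants were at 2 leaves when dosed.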

[1] = system: sedge, umbrella (small-flower umbrella sedge, Cyperus difformis); assay: as above; settings: 250 g ai/ha, Flood, applied to paddy water, 2-leaf stage, evaluated after 13 to 15 days
How it was run: as §1

[2] = system: barnyardgrass (Echinochloa crus-galli); assay: as above; settings: 250 g ai/ha, Flood, applied to paddy water, 2-leaf stage, evaluated after 13 to 15 days
How it was run: as §1

[3] = system: ducksalad (Heteranhera limosa); assay: as above; settings: 250 g ai/ha, Flood, applied to paddy water, 2-leaf stage, evaluated after 13 to 15 days
How it was run: as §1

[4] = system: pigweed (Amaranthus retroflexus); assay: Test A preemergence, visual plant response rating; settings: for Pigweed plant response rating: 125 g ai/ha, preemergence, 0 to 100 scale, 0 no effect, 100 complete control; for Pigweed plant response rating (0 to 100 scale): approx. 10 days
How it was run: (§2)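 Preemergence: seeds in loam/sand blend given directed soil spray of compound in non-phytotoxic solvent with surfactant. Postemergence: plants 2–10 cm, one- to two-leaf stage, sprayed with same formulation. Visual injury rated vs untreated controls after ~10 days in greenhouse, 0 (no effect) to 100 (complete control).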

[5] = system: Italian ryegrass (Lolium multiflorum); assay: Test A preemergence, visual plant response rating; settings: for Ryegrass, Italian plant response rating: 125 g ai/ha, preemergence, 0 to 100 scale, 0 no effect, 100 complete control; for Ryegrass, Italian plant response rating (0 to 100 scale): approx. 10 days
How it was run: as §2

kochia (Kochia scoparia) [6] = assay: Test A preemergence, visual plant response rating; settings: for Kochia plant response rating: 125 g ai/ha, preemergence, 0 to 100 scale, 0 no effect, 100 complete control; for Kochia plant response rating (0 to 100 scale): approx. 10 days
How it was run: as §2

[7] = system: ragweed (common ragweed, Ambrosia elatior); assay: Test A preemergence, visual plant response rating; settings: for Ragweed plant response rating (0 to 100 scale): approx. 10 days; for Ragweed plant response rating: 125 g ai/ha, preemergence, 0 to 100 scale, 0 no effect, 100 complete control
How it was run: as §2

[8] = system: foxtail, giant (giant foxtail, Setaria faberii); assay: Test A preemergence, visual plant response rating; settings: for Foxtail, Giant plant response rating: 125 g ai/ha, preemergence, 0 to 100 scale, 0 no effect, 100 complete control; for Foxtail, Giant plant response rating (0 to 100 scale): approx. 10 days
How it was run: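 Ratings 0–100 (100 = complete control), visual, vs untreated controls at ~10 days. Application pre- or postemergence; solvent mixture with surfactant; loam/sand medium.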

[9] = system: barnyardgrass (Echinochloa crus-galli); assay: Test A preemergence, visual plant response rating; settings: for Barnyardgrass plant response rating: 125 g ai/ha, preemergence, 0 to 100 scale, 0 no effect, 100 complete control; for Barnyardgrass plant response rating (0 to 100 scale): approx. 10 days
How it was run: as §2

corn (Zea mays) = assay: Test A postemergence, visual plant response rating; settings: for Corn plant response rating (0 to 100 scale): 500 g ai/ha, postemergence, 0 is no effect, 100 is complete control; for Corn plant response rating: Postemergence, 125 g ai/ha, 0 to 100 scale (0 no effect, 100 complete control)
How it was run: as §2

[10] = system: galium (catchweed bedstraw, Galium aparine); assay: Test A postemergence, visual plant response rating; settings: for Galium plant response rating (0 to 100 scale): 500 g ai/ha, postemergence, 0 is no effect, 100 is complete control; for Galium plant response rating: Postemergence, 125 g ai/ha, 0 to 100 scale (0 no effect, 100 complete control)
How it was run: as §2

[11] = system: blackgrass (Alopecurus myosuroides); assay: Test A postemergence, visual plant response rating; settings: for Blackgrass plant response rating (0 to 100 scale): 500 g ai/ha, postemergence, 0 is no effect, 100 is complete control; for Blackgrass plant response rating: Postemergence, 125 g ai/ha, 0 to 100 scale (0 no effect, 100 complete control)
How it was run: as §2

[12] = system: pigweed (Amaranthus retroflexus); assay: Test A postemergence, visual plant response rating; settings: for Pigweed plant response rating (0 to 100 scale): 500 g ai/ha, postemergence, 0 is no effect, 100 is complete control; for Pigweed plant response rating: Postemergence, 125 g ai/ha, 0 to 100 scale (0 no effect, 100 complete control)
How it was run: as §2

[13] = system: Italian ryegrass (Lolium multiflorum); assay: Test A postemergence, visual plant response rating; settings: for Ryegrass, Italian plant response rating (0 to 100 scale): 500 g ai/ha, postemergence, 0 is no effect, 100 is complete control; for Ryegrass, Italian plant response rating: Postemergence, 125 g ai/ha, 0 to 100 scale (0 no effect, 100 complete control)
How it was run: as §2

[14] = system: wheat (Triticum aestivum); assay: Test A postemergence, visual plant response rating; settings: for Wheat plant response rating (0 to 100 scale): 500 g ai/ha, postemergence, 0 is no effect, 100 is complete control; for Wheat plant response rating: Postemergence, 125 g ai/ha, 0 to 100 scale (0 no effect, 100 complete control)
How it was run: as §2

kochia (Kochia scoparia) [15] = assay: Test A postemergence, visual plant response rating; settings: for Kochia plant response rating (0 to 100 scale): 500 g ai/ha, postemergence, 0 is no effect, 100 is complete control; for Kochia plant response rating: Postemergence, 125 g ai/ha, 0 to 100 scale (0 no effect, 100 complete control)
How it was run: as §2

[16] = system: ragweed (common ragweed, Ambrosia elatior); assay: Test A postemergence, visual plant response rating; settings: for Ragweed plant response rating (0 to 100 scale): 500 g ai/ha, postemergence, 0 is no effect, 100 is complete control; for Ragweed plant response rating: Postemergence, 125 g ai/ha, 0 to 100 scale (0 no effect, 100 complete control)
How it was run: as §2

[17] = system: foxtail, giant (giant foxtail, Setaria faberii); assay: Test A postemergence, visual plant response rating; settings: for Foxtail, Giant plant response rating (0 to 100 scale): 500 g ai/ha, postemergence, 0 is no effect, 100 is complete control; for Foxtail, Giant plant response rating: Postemergence, 125 g ai/ha, 0 to 100 scale (0 no effect, 100 complete control)
How it was run: as §2

[18] = system: barnyardgrass (Echinochloa crus-galli); assay: Test A postemergence, visual plant response rating; settings: for Barnyardgrass plant response rating (0 to 100 scale): 500 g ai/ha, postemergence, 0 is no effect, 100 is complete control; for Barnyardgrass plant response rating: Postemergence, 125 g ai/ha, 0 to 100 scale (0 no effect, 100 complete control)
How it was run: as §2

Row | Compound | Plant response rating, Rice (0 to 100 scale, 0 is no effect, 100 is complete control) (rice (Oryza sativa)) | Plant response rating, Sedge, Umbrella (0 to 100 scale, 0 is no effect, 100 is complete control) [1] | Plant response rating, Barnyardgrass (0 to 100 scale, 0 is no effect, 100 is complete control) [2] | Plant response rating, Ducksalad (0 to 100 scale, 0 is no effect, 100 is complete control) [3] | Pigweed plant response rating (0 to 100 scale) ([4]; 500 g ai/ha Preemergence) | Ryegrass, Italian plant response rating (0 to 100 scale) ([5]; 500 g ai/ha Preemergence) | Kochia plant response rating (0 to 100 scale) (kochia (Kochia scoparia) [6]; 500 g ai/ha Preemergence) | Ragweed plant response rating (0 to 100 scale) ([7]; 500 g ai/ha Preemergence) | Foxtail, Giant plant response rating (0 to 100 scale) ([8]; 500 g ai/ha Preemergence) | Barnyardgrass plant response rating (0 to 100 scale) ([9]; 500 g ai/ha Preemergence) | Corn plant response rating (0 to 100 scale) (corn (Zea mays)) | Corn plant response rating (corn (Zea mays)) | Galium plant response rating (0 to 100 scale) [10] | Galium plant response rating [10] | Blackgrass plant response rating (0 to 100 scale) [11] | Blackgrass plant response rating [11] | Pigweed plant response rating (0 to 100 scale) [12] | Pigweed plant response rating [12] | Ryegrass, Italian plant response rating (0 to 100 scale) [13] | Ryegrass, Italian plant response rating [13] | other results
1 | CON=C(c1cccc(C(F)(F)F)c1Cl)c1c(O)c(C)nn(C)c1=O [Compound 103] | 0 | 0 | 0 | 0 | 50 | 70 | 0 | 50 | 20 | 40 | 0 | 0 | 70 | 40 | 40 | 20 | 30 | 10 | 50 | 0 | Pigweed plant response rating [4]: 0; Ryegrass, Italian plant response rating [5]: 30; Kochia plant response rating (kochia (Kochia scoparia) [6]): 0; Foxtail, Giant plant response rating [8]: 0; Barnyardgrass plant response rating [9]: 0; Wheat plant response rating (0 to 100 scale) [14]: 0; Wheat plant response rating [14]: 0; Kochia plant response rating (0 to 100 scale) (kochia (Kochia scoparia) [15]): 20; Kochia plant response rating (kochia (Kochia scoparia) [15]): 0; Ragweed plant response rating (0 to 100 scale) [16]: 20; Ragweed plant response rating [16]: 10; Foxtail, Giant plant response rating (0 to 100 scale) [17]: 30; Foxtail, Giant plant response rating [17]: 0; Barnyardgrass plant response rating (0 to 100 scale) [18]: 30; Barnyardgrass plant response rating [18]: 20
2 | C=CCn1nc(C)c(O)c(C(=NOC)c2cccc(Cl)c2)c1=O (mixture of isomers) [Compound 5] | 0 | 0 | 0 | 0 | 0 | 20 | 0 | 0 | 10 | 70 | 0 | 0 | 0 | 0 | 50 | 10 | 0 | 0 | 30 | 0 | Pigweed plant response rating (0 to 100 scale) ([4]; 125 g ai/ha Preemergence): 0; Ryegrass, Italian plant response rating (0 to 100 scale) ([5]; 125 g ai/ha Preemergence): 0; Kochia plant response rating (0 to 100 scale) (kochia (Kochia scoparia) [6]; 125 g ai/ha Preemergence): 0; Ragweed plant response rating (0 to 100 scale) ([7]; 125 g ai/ha Preemergence): 0; Foxtail, Giant plant response rating (0 to 100 scale) ([8]; 125 g ai/ha Preemergence): 0; Barnyardgrass plant response rating (0 to 100 scale) ([9]; 125 g ai/ha Preemergence): 20; Wheat plant response rating (0 to 100 scale) [14]: 0; Wheat plant response rating [14]: 0; Kochia plant response rating (0 to 100 scale) (kochia (Kochia scoparia) [15]): 0; Kochia plant response rating (kochia (Kochia scoparia) [15]): 0; Ragweed plant response rating (0 to 100 scale) [16]: 0; Ragweed plant response rating [16]: 0; Foxtail, Giant plant response rating (0 to 100 scale) [17]: 10; Foxtail, Giant plant response rating [17]: 0; Barnyardgrass plant response rating (0 to 100 scale) [18]: 30; Barnyardgrass plant response rating [18]: 10
3 | CO/N=C(\c1ccc(C)o1)c1c(O)c(C)nn(C)c1=O [Compound 53] | 0 | 0 | 0 | 0 | 0 | 0 | 0 | 0 | 0 | 0 | 30 | 0 | 0 | 0 | 40 | 10 | 0 | 0 | 90 | 20 | Pigweed plant response rating [4]: 0; Ryegrass, Italian plant response rating [5]: 0; Kochia plant response rating (kochia (Kochia scoparia) [6]): 0; Ragweed plant response rating [7]: 0; Foxtail, Giant plant response rating [8]: 0; Barnyardgrass plant response rating [9]: 0; Wheat plant response rating (0 to 100 scale) [14]: 0; Wheat plant response rating [14]: 0; Kochia plant response rating (0 to 100 scale) (kochia (Kochia scoparia) [15]): 0; Kochia plant response rating (kochia (Kochia scoparia) [15]): 0; Ragweed plant response rating (0 to 100 scale) [16]: 0; Ragweed plant response rating [16]: 0; Foxtail, Giant plant response rating (0 to 100 scale) [17]: 90; Foxtail, Giant plant response rating [17]: 10; Barnyardgrass plant response rating (0 to 100 scale) [18]: 70; Barnyardgrass plant response rating [18]: 10
4 | CO/N=C(/c1ccsc1C)c1c(O)c(C)nn(C)c1=O [Compound 135] | 0 | 0 | 0 | 0 | 20 | 0 | 10 | 10 | 0 | 0 | 0 | 0 | 40 | 30 | 0 | 0 | 30 | 20 | 30 | 0 | Pigweed plant response rating [4]: 0; Ryegrass, Italian plant response rating [5]: 0; Kochia plant response rating (kochia (Kochia scoparia) [6]): 0; Ragweed plant response rating [7]: 0; Foxtail, Giant plant response rating [8]: 0; Barnyardgrass plant response rating [9]: 0; Wheat plant response rating (0 to 100 scale) [14]: 0; Wheat plant response rating [14]: 0; Kochia plant response rating (0 to 100 scale) (kochia (Kochia scoparia) [15]): 10; Kochia plant response rating (kochia (Kochia scoparia) [15]): 0; Ragweed plant response rating (0 to 100 scale) [16]: 20; Ragweed plant response rating [16]: 0; Foxtail, Giant plant response rating (0 to 100 scale) [17]: 0; Foxtail, Giant plant response rating [17]: 0; Barnyardgrass plant response rating (0 to 100 scale) [18]: 0; Barnyardgrass plant response rating [18]: 0
5 | CON=C(c1c(O)c(C)nn(C)c1=O)c1csc2ccccc12 (single isomer, unassigned) [Compound 45] | 0 | 0 | 0 | 0 | 0 | 10 | 50 | 40 | 0 | 0 | 0 | 0 | 70 | 50 | 20 | 0 | 10 | 0 | 20 | 0 | Pigweed plant response rating [4]: 0; Ryegrass, Italian plant response rating [5]: 0; Kochia plant response rating (kochia (Kochia scoparia) [6]): 0; Ragweed plant response rating [7]: 10; Foxtail, Giant plant response rating [8]: 0; Barnyardgrass plant response rating [9]: 0; Wheat plant response rating (0 to 100 scale) [14]: 0; Wheat plant response rating [14]: 0; Kochia plant response rating (0 to 100 scale) (kochia (Kochia scoparia) [15]): 0; Kochia plant response rating (kochia (Kochia scoparia) [15]): 0; Ragweed plant response rating (0 to 100 scale) [16]: 70; Ragweed plant response rating [16]: 30; Foxtail, Giant plant response rating (0 to 100 scale) [17]: 0; Foxtail, Giant plant response rating [17]: 0; Barnyardgrass plant response rating (0 to 100 scale) [18]: 0; Barnyardgrass plant response rating [18]: 0
